Measured values: ChEMBL document CHEMBL5620385, “Orally bioavailable styryl derivative of rohitukine-N-oxide inhibits CDK9/T1 and the growth of pancreatic cancer cells” (Eur J Med Chem, 2023)

Key:
[1] = AUC(0 to t) in BALB/c mouse at 30 mg/kg, po measured for 6 hrs by LC-MS/MS analysis; assay type: ADME, organism-based; details: in vivo
[2] = Cmax in BALB/c mouse at 30 mg/kg, po measured for 6 hrs by LC-MS/MS analysis; assay type: ADME, organism-based; details: in vivo
[3] = Clearance in BALB/c mouse at 30 mg/kg, po measured for 6 hrs by LC-MS/MS analysis; assay type: ADME, organism-based; details: in vivo
MIA PaCa-2 [4] = test: Induction of apoptosis in human MIA PaCa-2 cells assessed as apoptotic body formation incubated for 48 hrs by DAPI staining based analysis; assay type: functional, cell-based
HCT-116 [5] = test: Antiproliferative activity against human HCT-116 cells assessed as cell growth inhibition at 10 uM incubated for 48 hrs by MTT assay relative to control; assay type: functional
[6] = Metabolic stability in human liver microsomes assessed as compound remaining at 10 uM measured after 30 mins in presence of NADPH by HPLC analysis; assay type: ADME, Microsome; details: 0.5 h
MIA PaCa-2 [7] = test: Induction of mitochondrial membrane potential loss in human MIA PaCa-2 cells incubated for 48 hrs by Rhodamine-123 dye based analysis; assay type: functional, cell-based
[8] = Clearance in BALB/c mouse at 2.5 mg/kg, iv measured for 6 hrs by LC-MS/MS analysis; assay type: ADME, organism-based; details: in vivo
[9] = AUC(0 to t) in BALB/c mouse at 2.5 mg/kg, iv measured for 6 hrs by LC-MS/MS analysis; assay type: ADME, organism-based; details: in vivo
[10] = Antiproliferative activity against HEK293 cells assessed as cell growth inhibition incubated for 48 hrs by MTT assay; assay type: toxicity, cell-based; details: human
[11] = target: Cyclin-dependent kinase 7/ cyclin H (Homo sapiens) (UniProt P51946+P50613); test: Inhibition of CDK7/cyclin H (unknown origin) at 10 uM by ADP-Glo assay relative to control; assay type: protein-complex assay
MIA PaCa-2 [12] = test: Induction of apoptosis in human MIA PaCa-2 cells assessed as chromatin condensation incubated for 48 hrs by DAPI staining based analysis; assay type: functional, cell-based
[13] = AUC(0 to infinity) in BALB/c mouse at 2.5 mg/kg, iv measured for 6 hrs by LC-MS/MS analysis; assay type: ADME, organism-based; details: in vivo
[14] = Half life in BALB/c mouse at 30 mg/kg, po measured for 6 hrs by LC-MS/MS analysis; assay type: ADME, organism-based; details: in vivo
[15] = target: Cyclin-dependent kinase 7/ cyclin H (Homo sapiens, UniProt P50613); test: Inhibition of CDK7/cyclin H (unknown origin) by ADP-Glo assay; assay type: protein-complex assay
[16] = Tmax in BALB/c mouse at 30 mg/kg, po measured for 6 hrs by LC-MS/MS analysis; assay type: ADME, organism-based; details: in vivo
MIA PaCa-2 [17] = test: Induction of intracellular ROS generation in human MIA PaCa-2 cells incubated for 48 hrs by DCFDA dye based analysis; assay type: functional, cell-based
CDK9/cyclin T1 = CDK9/cyclin T1 (Homo sapiens, UniProt P50750); test: Inhibition of CDK9/cyclin T1 (unknown origin) by ADP-Glo assay; assay type: protein-complex assay
[18] = C0 in BALB/c mouse at 2.5 mg/kg, iv measured for 6 hrs by LC-MS/MS analysis; assay type: ADME, organism-based; details: in vivo
CDK9/Cyclin K = CDK9/Cyclin K (Homo sapiens, UniProt P50750); test: Inhibition of CDK9/cyclin K (unknown origin) by ADP-Glo assay; assay type: protein-complex assay
[19] = Antiproliferative activity against HEK293 cells assessed as cell growth inhibition at 10 uM incubated for 48 hrs by MTT assay relative to control; assay type: toxicity, cell-based; details: human
MIA PaCa-2 [20] = test: Antiproliferative activity against human MIA PaCa-2 cells assessed as cell growth inhibition incubated for 48 hrs by MTT assay; assay type: functional
HCT-116 [21] = test: Antiproliferative activity against human HCT-116 cells assessed as cell growth inhibition incubated for 48 hrs by MTT assay; assay type: functional
[22] = target: CDK9/Cyclin K (Homo sapiens) (UniProt P50750+O75909); test: Inhibition of CDK9/cyclin K (unknown origin) at 10 uM by ADP-Glo assay relative to control; assay type: protein-complex assay
MIA PaCa-2 [23] = test: Antiproliferative activity against human MIA PaCa-2 cells assessed as cell growth inhibition at 10 uM incubated for 48 hrs by MTT assay relative to control; assay type: functional
[24] = AUC(0 to infinity) in BALB/c mouse at 30 mg/kg, po measured for 6 hrs by LC-MS/MS analysis; assay type: ADME, organism-based; details: in vivo
[25] = Metabolic stability in mouse liver microsomes assessed as compound remaining at 10 uM measured after 30 mins in presence of NADPH by HPLC analysis; assay type: ADME, Microsome; details: 0.5 h
[26] = Volume of distribution in BALB/c mouse at 30 mg/kg, po measured for 6 hrs by LC-MS/MS analysis; assay type: ADME, organism-based; details: in vivo
[27] = Volume of distribution in BALB/c mouse at 2.5 mg/kg, iv measured for 6 hrs by LC-MS/MS analysis; assay type: ADME, organism-based; details: in vivo
[28] = Half life in BALB/c mouse at 2.5 mg/kg, iv measured for 6 hrs by LC-MS/MS analysis; assay type: ADME, organism-based; details: in vivo
[29] = Metabolic stability in mouse liver microsomes assessed as drug metabolism at 10 uM measured after 30 mins in presence of NADPH by HPLC analysis; assay type: ADME, Microsome; details: read-out: Drug metabolism
[30] = Clearance in BALB/c mouse at 5 mg/kg, iv measured for 6 hrs by LC-MS/MS analysis; assay type: ADME, organism-based; details: in vivo
[31] = Volume of distribution in BALB/c mouse at 5 mg/kg, iv measured for 6 hrs by LC-MS/MS analysis; assay type: ADME, organism-based; details: in vivo
[32] = Metabolic stability in human liver microsomes assessed as drug metabolism at 10 uM measured after 30 mins in presence of NADPH by HPLC analysis; assay type: ADME, Microsome; details: read-out: Drug metabolism
[33] = AUC(0 to t) in BALB/c mouse at 5 mg/kg, iv measured for 6 hrs by LC-MS/MS analysis; assay type: ADME, organism-based; details: in vivo
[34] = C0 in BALB/c mouse at 5 mg/kg, iv measured for 6 hrs by LC-MS/MS analysis; assay type: ADME, organism-based; details: in vivo
[35] = AUC(0 to infinity) in BALB/c mouse at 5 mg/kg, iv measured for 6 hrs by LC-MS/MS analysis; assay type: ADME, organism-based; details: in vivo
[36] = Half life in BALB/c mouse at 5 mg/kg, iv measured for 6 hrs by LC-MS/MS analysis; assay type: ADME, organism-based; details: in vivo

Sequence of CDK9/Cyclin K (P50750 whole entry): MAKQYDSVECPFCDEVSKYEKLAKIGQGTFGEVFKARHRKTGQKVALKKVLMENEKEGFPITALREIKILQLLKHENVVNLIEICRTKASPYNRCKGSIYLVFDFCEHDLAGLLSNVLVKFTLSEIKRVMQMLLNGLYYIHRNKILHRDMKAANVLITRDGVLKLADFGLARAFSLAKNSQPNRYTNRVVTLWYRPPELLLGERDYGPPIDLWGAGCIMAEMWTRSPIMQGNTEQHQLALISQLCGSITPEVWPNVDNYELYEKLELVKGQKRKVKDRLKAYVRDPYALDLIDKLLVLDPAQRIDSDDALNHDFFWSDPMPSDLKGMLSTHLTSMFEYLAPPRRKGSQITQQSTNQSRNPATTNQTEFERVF
Sequence of CDK9/Cyclin K (O75909 whole entry, further chain): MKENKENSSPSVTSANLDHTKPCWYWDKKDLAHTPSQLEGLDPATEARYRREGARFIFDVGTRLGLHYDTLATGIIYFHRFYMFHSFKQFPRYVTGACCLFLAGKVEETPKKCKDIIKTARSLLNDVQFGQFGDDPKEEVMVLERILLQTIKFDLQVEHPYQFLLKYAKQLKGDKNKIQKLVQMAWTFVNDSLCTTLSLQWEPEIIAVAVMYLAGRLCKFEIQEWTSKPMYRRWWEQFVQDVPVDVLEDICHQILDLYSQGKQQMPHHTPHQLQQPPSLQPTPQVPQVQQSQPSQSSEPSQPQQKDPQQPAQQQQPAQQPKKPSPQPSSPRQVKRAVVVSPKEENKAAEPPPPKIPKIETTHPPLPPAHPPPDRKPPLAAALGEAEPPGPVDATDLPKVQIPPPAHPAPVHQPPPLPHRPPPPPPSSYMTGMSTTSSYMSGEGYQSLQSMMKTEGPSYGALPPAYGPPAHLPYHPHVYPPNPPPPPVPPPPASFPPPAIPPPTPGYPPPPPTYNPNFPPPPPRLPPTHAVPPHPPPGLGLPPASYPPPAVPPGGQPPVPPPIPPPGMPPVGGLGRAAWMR
Sequence of CDK9/cyclin T1 (O60563 whole entry): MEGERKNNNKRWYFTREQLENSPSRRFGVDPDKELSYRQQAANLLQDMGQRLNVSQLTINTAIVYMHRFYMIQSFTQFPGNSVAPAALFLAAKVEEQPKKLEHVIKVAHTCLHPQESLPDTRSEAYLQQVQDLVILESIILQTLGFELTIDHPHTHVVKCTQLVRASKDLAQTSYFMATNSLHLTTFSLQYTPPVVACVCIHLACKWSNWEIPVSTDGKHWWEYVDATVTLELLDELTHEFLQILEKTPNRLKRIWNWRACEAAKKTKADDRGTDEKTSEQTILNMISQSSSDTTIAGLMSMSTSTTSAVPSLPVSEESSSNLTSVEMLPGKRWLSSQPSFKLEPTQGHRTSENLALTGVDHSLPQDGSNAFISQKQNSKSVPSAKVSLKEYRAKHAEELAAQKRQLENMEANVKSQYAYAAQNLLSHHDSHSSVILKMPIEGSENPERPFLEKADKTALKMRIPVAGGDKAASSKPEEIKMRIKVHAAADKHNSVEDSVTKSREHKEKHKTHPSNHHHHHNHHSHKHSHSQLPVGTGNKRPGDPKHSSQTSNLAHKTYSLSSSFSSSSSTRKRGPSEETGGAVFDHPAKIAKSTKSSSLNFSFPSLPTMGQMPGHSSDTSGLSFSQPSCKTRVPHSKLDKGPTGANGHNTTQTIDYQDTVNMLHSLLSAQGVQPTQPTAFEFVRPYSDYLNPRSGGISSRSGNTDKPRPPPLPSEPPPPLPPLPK
Sequence of CDK9/cyclin T1 (P50750 whole entry): as the sequence (P50750 whole entry) above
Sequence of Cyclin-dependent kinase 7/ cyclin H (P51946 whole entry): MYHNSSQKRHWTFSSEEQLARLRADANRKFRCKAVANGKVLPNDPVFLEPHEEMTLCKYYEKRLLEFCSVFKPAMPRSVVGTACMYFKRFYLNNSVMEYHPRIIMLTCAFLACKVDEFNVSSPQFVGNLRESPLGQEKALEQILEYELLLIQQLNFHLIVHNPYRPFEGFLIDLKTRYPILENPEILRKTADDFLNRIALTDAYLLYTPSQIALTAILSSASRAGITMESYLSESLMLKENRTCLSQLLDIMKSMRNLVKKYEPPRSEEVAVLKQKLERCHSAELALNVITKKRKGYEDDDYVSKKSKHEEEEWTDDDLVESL
Sequence of Cyclin-dependent kinase 7/ cyclin H (P50613 whole entry): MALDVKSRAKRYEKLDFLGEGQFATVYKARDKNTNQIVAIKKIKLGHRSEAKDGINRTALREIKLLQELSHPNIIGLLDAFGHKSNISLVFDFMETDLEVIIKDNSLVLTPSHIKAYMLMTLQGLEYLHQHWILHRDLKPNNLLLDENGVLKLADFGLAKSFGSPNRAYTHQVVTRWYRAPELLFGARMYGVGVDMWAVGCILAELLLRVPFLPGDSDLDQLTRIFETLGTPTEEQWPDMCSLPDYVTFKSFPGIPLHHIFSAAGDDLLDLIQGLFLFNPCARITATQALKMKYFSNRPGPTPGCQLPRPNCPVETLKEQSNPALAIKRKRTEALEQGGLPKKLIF

SMILES	AUC(0-t) at 6 h [1] [ng·h/mL]	Cmax [2] [ng/mL]	CL/F [3] [mL/min/kg]	Activity (MIA PaCa-2 [4])	inhibition at 10 µM (HCT-116 [5]) [%]	Activity (MIA PaCa-2 [7])	GI50 at 48 h [10] [µM]	inhibition [11] [%]	Activity (MIA PaCa-2 [12])	half-life [14] [min]	IC50 [15] [µM]	Tmax [16] [min]	Activity (MIA PaCa-2 [17])	IC50 (CDK9/cyclin T1) [µM]	IC50 (CDK9/Cyclin K) [µM]	inhibition at 48 h, 10 µM [19] [%]	GI50 (MIA PaCa-2 [20]) [µM]	GI50 (HCT-116 [21]) [µM]	inhibition [22] [%]	inhibition at 10 µM (MIA PaCa-2 [23]) [%]	other results
C[N+]1([O-])CC[C@H](c2c(O)cc(O)c3c(=O)cc(/C=C/c4ccccc4Cl)oc23)[C@H](O)C1 (stereo not given in full)	510	731	953	Dose-Dependent Effect	67	Dose-Dependent Effect	90.3	62.7	Dose-Dependent Effect	102	1.46	4.98	Dose-Dependent Effect	0.166	2.81	29.7	6.07	5.1	61.7	56.3	Stability [6]: Stable; clearance [8]: 120 mL/min/kg; AUC(0-t) at 6 h [9]: 341 ng·h/mL; AUC(0-inf) [13]: 346 ng·h/mL; C0 at 6 h [18]: 5720 ng/mL; AUC(0-inf) [24]: 525 ng·h/mL; Stability [25]: Stable; Vd [26]: 32.4 L/kg; Vd [27]: 3 L/kg; half-life [28]: 17.4 min
COc1cc(O)c2c(=O)cc(/C=C/c3c(F)cccc3Cl)oc2c1[C@H]1CC[N+](C)([O-])C[C@H]1O (stereo not given in full)	400	817	1250	Dose-Dependent Effect	25.2	Dose-Dependent Effect	81.5	28.7	Dose-Dependent Effect	9.6	0.54	30	Dose-Dependent Effect	0.15	2.28	14.9	5.53	2.53	41.7	24.9	metabolised at 0.5 h, 10 µM [29]: 16%; clearance [30]: 86.7 mL/min/kg; Vd [31]: 0.8 L/kg; metabolised at 0.5 h, 10 µM [32]: 16%; AUC(0-t) at 6 h [33]: 956 ng·h/mL; C0 at 6 h [34]: 19100 ng/mL; AUC(0-inf) [35]: 957 ng·h/mL; AUC(0-inf) [24]: 401 ng·h/mL; half-life [36]: 6 min; Vd [26]: 17 L/kg
